≈ marks a conversion by molar mass, not a printed value.
How the values were obtained:
[1] = test system: Ent. aerogenes ATCC 15038; test: Antimicrobial activity, agar dilution; type: cell-based, Enterobacter aerogenes; conditions: Klebsiella aerogenes, ATCC15038, 20 h, Agar Dextrose dilutions, 37°C, 20 heures, read-out: Activité pharmacologique antimicrobienne (concentrations)
From the text: (§1) L'activité pharmacologique antimicrobienne de ces composés a été étudiée selon les références exposées ci-dessous.
(§2) Activité pharmacologique antimicrobienne : G.L. Daquet et Y.A. Chabbect, techniques en bactériologie, Vol. 3, Flammarion Médecine-Sciences, Paris 1972, et W.B. Hugo et A.D. Rusell, Pharmaceutical Microbiology, Blackwell Scientific Publications, London, 1977.
(§3) Milieu de culture et solvant : Agar d'antibiotiques n° 1 (Oxoid CM 327) Bouillon de triptone-soja (Oxoid CM 129) Solution Physiologique Ringer 1/4 (Oxoid BR 52) Agar Dextrose (BBL 11165)
(§4) Microorganismes : "Bacillus subtilis" ATCC 6633 "Citrobacter freundii" ATCC 112606 "Enterobacter aerogenes" ATCC 15038 "Enterobacter cloacae" ATCC 23355 "Bacillus cereus" ATCC 1178 "Escherichia coli" ATCC 10799 "Escherichia coli" ATCC 23559 "Klebsiella pneumoniae" ATCC 10031 "Proteus vulgaris" ATCC 8427 "Morg. morganii" ATCC 8019 "Pseudomonas aeruginosa" ATCC 9721 "Pseudomonas aeruginosa" ATCC 10145 "Salmonella typhimurium" ATCC 14028 "Salmonella typhimurium" ATCC 6539 "Serratia marcescens" ATCC 13880 "Shigella flexnerii" ATCC 12022 "Staphylococcusepidermis" ATCC 155-1 "Staphylococcus aureus" ATCC 25178 "Streptococcus faecalis" ATCC 10541.
(§5) Chacun des microorganismes est ensemencé par strie dans des tubes d'Agar d'antibiotiques n° 1, et mis en incubation pendant 20 heures à 37°C. Ensuite, on prend une anse de culture, on ensemence dans un bouillon de Triptone-soja et on incube pendant 20 heures à 37°C. On dilue à 1/4 la culture obtenue avec une solution physiologique Ringer, de façon à obtenir une suspension normalisée de […] pour chaque organisme.
(§6) A partir d'une solution de 100 µg/ml, chaque produit est dilué dans l'Agar Dextrose (préalablement fondu et maintenu à 50°C) par dilutions successives de façon à obtenir les concentrations suivantes : 64-32-16-8-4-2-1-0,5-0,25-0,125 µg de dérivé/ml du milieu.
(§7) Postérieurement, chaque concentration de chaque produit est répartie dans des boîtes de Petri de 10 cm de diamètre, à raison de 10 ml de milieu par boîte et autant de boîtes que de microorganismes à tester.
(§8) Une fois le milieu refroidi, les boîtes sont ensemencées avec les inoculations à raison de 0,4 ml d'inoculation par boîte. On les étend avec une anse de Driglasky et on recueille le surnageant. Les boîtes ensemencées sont incubées à 37°C pendant 20 heures.
(§9) Les résultats obtenus sont décrits dans les tableaux suivants. Les concentrations sont données en µg/ml.

[2] = test system: Staph. aureus ATCC 25178; test: Antimicrobial activity, agar dilution; type: cell-based, Staphylococcus aureus; conditions: Staphylococcus aureus, ATCC25178, 20 h, Agar Dextrose dilutions, 37°C, 20 heures, read-out: Activité pharmacologique antimicrobienne (concentrations)
From the text: as §1, §2, §3, §4, §5, §6, §7, §8, §9

[3] = test system: Citr. freundii ATCC 11606; test: Antimicrobial activity, agar dilution; type: cell-based, Citrobacter freundii; conditions: Citrobacter freundii, ATCC11606, 20 h, Agar Dextrose dilutions, 37°C, 20 heures, read-out: Activité pharmacologique antimicrobienne (concentrations)
From the text: as §1, §2, §3, §4, §5, §6, §7, §8, §9

[4] = test system: Bacillus cereus ATCC 11778; test: Antimicrobial activity, agar dilution; type: cell-based; conditions: Bacillus cereus, ATCC11778, 20 h, Agar Dextrose dilutions, 37°C, 20 heures, read-out: Activité pharmacologique antimicrobienne (concentrations)
From the text: as §1, §2, §3, §4, §5, §6, §7, §8, §9

[5] = test system: Ps. aeruginosa ATCC 9721; test: Antimicrobial activity, agar dilution; type: cell-based; conditions: Pseudomonas aeruginosa, ATCC9721, 20 h, Agar Dextrose dilutions, 37°C, 20 heures, read-out: Activité pharmacologique antimicrobienne (concentrations)
From the text: as §1, §2, §3, §4, §5, §6, §7, §8, §9

[6] = test system: Morg. morganii ATCC 8019; test: Antimicrobial activity, agar dilution; type: cell-based; conditions: Morganella morganii, ATCC8019, 20 h, Agar Dextrose dilutions, 37°C, 20 heures, read-out: Activité pharmacologique antimicrobienne (concentrations)
From the text: as §1, §2, §3, §4, §5, §6, §7, §8, §9

[7] = test system: Sal. typhi ATCC 6539; test: Antimicrobial activity, agar dilution; type: cell-based; conditions: Salmonella enterica, 20 h, read-out: Activité pharmacologique antimicrobienne (concentrations)
From the text: as §1, §2, §3, §4, §5, §6, §7, §8, §9

[8] = test system: Shigella flexnerii ATCC 12022; test: Antimicrobial activity, agar dilution; type: cell-based; conditions: ATCC12022, 20 h, Agar Dextrose dilutions, 37°C, 20 heures, read-out: Activité pharmacologique antimicrobienne (concentrations)
From the text: as §1, §2, §3, §4, §5, §6, §7, §8, §9

[9] = test system: Ps. aeruginosa ATCC 10145; test: Antimicrobial activity, agar dilution; type: cell-based; conditions: Pseudomonas aeruginosa, ATCC10145, 20 h, Agar Dextrose dilutions, 37°C, 20 heures, read-out: Activité pharmacologique antimicrobienne (concentrations)
From the text: as §1, §2, §3, §4, §5, §6, §7, §8, §9

[10] = test system: Escherichia coli ATCC 23559; test: Antimicrobial activity, agar dilution; type: cell-based; conditions: Escherichia coli, ATCC23559, 20 h, Agar Dextrose dilutions, 37°C, 20 heures, read-out: Activité pharmacologique antimicrobienne (concentrations)
From the text: as §1, §2, §3, §4, §5, §6, §7, §8, §9

[11] = test system: Staph. epidermidis ATCC 155-1; test: Antimicrobial activity, agar dilution; type: cell-based; conditions: Staphylococcus epidermidis, ATCC155, 20 h, Agar Dextrose dilutions, 37°C, 20 heures, read-out: Activité pharmacologique antimicrobienne (concentrations)
From the text: as §1, §2, §3, §4, §5, §6, §7, §8, §9

[12] = test system: Bacillus subtilis ATCC 6633; test: Antimicrobial activity, agar dilution; type: cell-based; conditions: ATCC6633, 20 h, Agar Dextrose dilutions, 37°C, 20 heures, read-out: Activité pharmacologique antimicrobienne (concentrations)
From the text: as §1, §2, §3, §4, §5, §6, §7, §8, §9

[13] = test system: Proteus vulgaris ATCC 8427; test: Antimicrobial activity, agar dilution; type: cell-based; conditions: Proteus vulgaris, ATCC8427, 20 h, Agar Dextrose dilutions, 37°C, 20 heures, read-out: Activité pharmacologique antimicrobienne (concentrations)
From the text: as §1, §2, §3, §4, §5, §6, §7, §8, §9

[14] = test system: Escherichia coli ATCC 10799; test: Antimicrobial activity, agar dilution; type: cell-based; conditions: Escherichia coli, ATCC10799, 20 h, Agar Dextrose dilutions, 37°C, 20 heures, read-out: Activité pharmacologique antimicrobienne (concentrations)
From the text: as §1, §2, §3, §4, §5, §6, §7, §8, §9

[15] = test system: Ent. cloacae ATCC 23355; test: Antimicrobial activity, agar dilution; type: cell-based, Enterobacter cloacae; conditions: Enterobacter cloacae, ATCC23355, 20 h, Agar Dextrose dilutions, 37°C, 20 heures, read-out: Activité pharmacologique antimicrobienne (concentrations)
From the text: as §1, §2, §3, §4, §5, §6, §7, §8, §9

[16] = test system: Serr. marcescens ATCC 13880; test: Antimicrobial activity, agar dilution; type: cell-based, Serratia marcescens; conditions: Serratia marcescens, ATCC13880, 20 h, Agar Dextrose dilutions, 37°C, 20 heures, read-out: Activité pharmacologique antimicrobienne (concentrations)
From the text: as §1, §2, §3, §4, §5, §6, §7, §8, §9

[17] = test system: Sal. typhimurium ATCC 14028; test: Antimicrobial activity, agar dilution; type: cell-based, Salmonella typhimurium; conditions: Salmonella enterica, 20 h, Agar Dextrose dilutions, 37°C, 20 heures, read-out: Activité pharmacologique antimicrobienne (concentrations)
From the text: as §1, §2, §3, §4, §5, §6, §7, §8, §9

[18] = test system: Kleb. pneumoniae ATCC 10031; test: Antimicrobial activity, agar dilution; type: cell-based, Klebsiella pneumoniae; conditions: Klebsiella pneumoniae, ATCC10031, 20 h, Agar Dextrose dilutions, 37°C, 20 heures, read-out: Activité pharmacologique antimicrobienne (concentrations)
From the text: as §1, §2, §3, §4, §5, §6, §7, §8, §9

[19] = test system: Strep. faecalis ATCC 10541; test: Antimicrobial activity, agar dilution; type: cell-based, Streptococcus faecalis; conditions: Enterococcus faecalis, ATCC10541, 20 h, Agar Dextrose dilutions, 37°C, 20 heures, read-out: Activité pharmacologique antimicrobienne (concentrations)
From the text: as §1, §2, §3, §4, §5, §6, §7, §8, §9

[20] = Solubility in water and at pH 7.4; type: physicochemical
From the text: Un grand nombre des composés de l'invention manifestent une augmentation de la solubilité dans l'eau ainsi que de la solubilité à pH 7,4 lorsqu'on compare avec les composés de référence. L'augmentation de solubilité au pH physiologique peut favoriser l'absorption du produit et la solubilité élevée dans l'eau permet l'administration du composé par voie parentérale.

C[C@@H]1[C@@H](NC(=O)[C@@H](C)N)CN1c1nc2c(cc1F)c(=O)c(C(=O)O)cn2C1CC1 [Exemple 4fa]
MIC [1]: 4 µg/mL (≈ 9.92 µM)
MIC [2]: 1 µg/mL (≈ 2.48 µM)
MIC [3]: 4 µg/mL (≈ 9.92 µM)
MIC [4]: 1 µg/mL (≈ 2.48 µM)
MIC [5]: > 16 µg/mL
MIC [6]: 8 µg/mL (≈ 19.8 µM)
MIC [7]: 4 µg/mL (≈ 9.92 µM)
MIC [8]: 1 µg/mL (≈ 2.48 µM)
MIC [9]: > 16 µg/mL
MIC [10]: 1 µg/mL (≈ 2.48 µM)
MIC [11]: 0.25 µg/mL (≈ 0.62 µM)
MIC [12]: 0.5 µg/mL (≈ 1.24 µM)
MIC [13]: 8 µg/mL (≈ 19.8 µM)
MIC [14]: 4 µg/mL (≈ 9.92 µM)
MIC [15]: 4 µg/mL (≈ 9.92 µM)
MIC [16]: 16 µg/mL (≈ 39.7 µM)
MIC [17]: 4 µg/mL (≈ 9.92 µM)
MIC [18]: 8 µg/mL (≈ 19.8 µM)
MIC [19]: 1 µg/mL (≈ 2.48 µM)
solubility ([20]; pH 7): > 500 µg/mL
solubility ([20]; water): > 500 µg/mL

Reference: patent EP0514268A1, “Substituted amino acid azetidinyl pyridone derivatives, their preparation and use as medicines” (LABORATORIOS DEL DR. ESTEVE, S.A., priority 1991, dated 1992)
